Reference: US20010055590A1, “Method for enhancing myoblast migration and invasion in the context of gene therapy” (priority 1999, published 2001)

Assays:
Assay type in all cases: cell-based
[1] = tested on: MMP-2; test: Gelatin zymography of human myoblasts, MMP-2
Description: Gelatin zymography for assaying MMPs was carried out as previously described (Guerin and Holland “Synthesis and secretion of matrix-degrading metalloproteinases by human skeletal muscle satellite cells” Devel. Dynamics 202:91-99,1995) with minor modifications. Briefly, myoblasts were grown in 6 cm tissue culture plates to approximately 70% confluence, then rinsed three times with serumfree DMEM and incubated for 3 hours in DMEM containing 0.2% BSA to eliminate the effects of serum. Growth factors were added and cells were incubated for 24 hours. Culture medium was then collected, centrifuged to pellet detached cells, and concentrated ten-to twenty-fold using the Centricon-10 (Amicon, Beverly, Mass.) system. The protein concentration of the supernatants was determined using the Bio-Rad protein microassay system with BSA used as the standard. Samples were stored at −70° C. until use. For gelatin zymography, aliquots (10 μg as the total protein per sample) were electrophoresed at constant voltage on a 10% polyacrylamide gel containing 2 mg/ml gelatin. […] Proteinase activity was quantified by densitometric scanning of bands using a Bio-Rad Gel Doc 1000 video camera imaging system (Bio Rad, Hercules, Calif.). […]

[2] = tested on: mouse myoblasts; test: Migration of mouse myoblasts transiently over-expressing MMPs; settings: NAC treatment, n=4
Description: (§1) Myoblast migration and invasion were examined using a commercially available in vitro cell migration and invasion assay kit (Biocoat, Becton Dickinson, Franklin Lakes, N.J.) as described by Albini et al. (A rapid in vitro assay for quantitating the invasive potential of tumor cells Cancer Res 47:3239-3245, 1987). Myoblasts were grown to approximately 70% confluence, rinsed three times in serum-free DMEM, followed by incubation for 3 hours in 0.2% bovine serum albumin (BSA) in DMEM to eliminate the effects of serum. Cells were then trypsinized and collected by centrifugation. Cells were resuspended in serum-free DMEM at a density of 1×10^5 cells/ml, and 0.5 ml aliquots of cell suspension were added to the top chamber. […] Fibronectin subfragments of 45 KDa (Sigma), 120 kDa (Gibco), 63 kDa (Retronectin, Takara) and 70 KDa (Sigma) were used alone or in combination. The growth factor concentrations used were those which could produce maximal effects as examined in the present studies by extending from values reported by Bischoff (“Chemotaxis of skeletal muscle satellite cells” Devel. Dynamics 208:505-515, 1997). […] The number of cells per field was counted in 10 randomly selected fields and averaged for each condition. […]

[3] = tested on: mouse myoblasts; test: Invasion of mouse myoblasts transiently over-expressing MMPs; settings: NAC treatment, n=4
Description: as §1

[4] = MMP-1 over-expressing myoblasts
[5] = MMP-2 over-expressing myoblasts

human serum fibronectin
MMP-2 activation [1]: significant increase in MMP-2 activation

CC(=O)N[C@@H](CS)C(=O)O [NAC, N-acetyl cysteine, reference compound]
migration capability relative to non-NAC treated cells [2, 4]: 35%
migration capability relative to non-NAC treated cells [2, 5]: 22%
invasion relative to non-treated cells [3, 4]: 40%
invasion relative to non-treated cells [3, 5]: 28%
